Laboratory results taken from US20200353052A1, “COMPOSITION FOR PROMOTING GOBLET CELL PROLIFERATION OR MUCIN SECRETION COMPRISING THYMOSIN BETA 4 OR DERIVATIVE THEREOF AS ACTIVE INGREDIENT” (G-TREEBNT CO., LTD., priority 2017, published 2020).

Legend:
Format in all cases: in vivo, NOD.B10-H2b mice
[1] = test system: mucin secreted in the conjunctiva; test: Amount of mucin secreted by Alcian blue staining of eyeball sections from dry eye-induced mice after eye drop instillation; details: eye drop instillation for 10 days; Alcian blue staining photographs (FIG. 4)
Method: (§1) 12-week-old or older NOD.B10-H2b mice were kept in a chamber with a humidity of 40% or lower for 10 days. Scopolamine hydrobromide (Sigma-Aldrich, SLBR8568V) at a concentration of 0.5 mg/0.2 ml was injected subcutaneously into the thigh 4 times (9 am, 12 pm, 3 pm, and 6 pm) daily while the mice were kept in the chamber. After 10 days, tear secretion volume and corneal smoothness score were measured, and only those mice with a tear secretion volume of 0.06 μl or lower and a corneal smoothness score of 2 or lower were selected.
(§2) For each test drug, eye drop instillation was performed as follows: Vehicle, 4 times a day; Diquas (Santen Pharmaceutical Co., Ltd., Japan), 6 times a day; Xiidra (Shire plc, USA), twice a day; and GBT-201, twice or 4 times a day. After 10 days, each group of mice was sacrificed, the eyeballs were collected, and tissue immunostaining and molecular biological analysis were performed (FIG. 1).
In order to identify whether thymosin beta 4 results in an increase in amount of mucin secreted in the conjunctiva, the eyeballs of the mice sacrificed in Experimental Example 1 were collected and assessed through Alcian blue staining.
Specifically, the eyeballs of the mice sacrificed in Experimental Example 1 were collected, and the eyes and adnexa, which had been fixed in formalin for 3 days, were cut into 6 μm sections using a microtome. […]

Muc16 = test: Immunofluorescence staining of Muc16 in cornea and conjunctiva of dry eye-induced mice; details: corneal and conjunctival epithelium; eye drop instillation for 10 days; immunofluorescence (FIGS. 6 and 7)
Method: as §1
as §2, with “1). […]” for “1).”
(§3) Specifically, the eyeballs of the mice sacrificed in Experimental Example 1 were collected, and the eyes and adnexa, which had been fixed in formalin for 3 days, were cut into 6 μm sections using a microtome. […] The mounted slide was photographed using a fluorescence microscope (Leica DM2500, Leica Microsystems GmbH, Wetzlar, Germany).

Muc4 = test: Immunofluorescence staining of Muc4 in cornea and conjunctiva of dry eye-induced mice; details: corneal and conjunctival epithelium; eye drop instillation for 10 days; immunofluorescence (FIGS. 6 and 7)
Method: as §1
as §2, with “1). […]” for “1).”
as §3

Muc5AC = test: Immunofluorescence staining of Muc5AC in cornea and conjunctiva of dry eye-induced mice; details: eye drop instillation for 10 days, immunofluorescence (FIGS. 6 and 7)
Method: as §1
as §2, with “1). […]” for “1).”
as §3

[2] = test system: goblet cells in the conjunctiva; test: Goblet cell number by PAS staining of eyeball sections from dry eye-induced mice after eye drop instillation; details: eye drop instillation for 10 days; PAS staining photographs (FIG. 2)
Method: as §1, §2
In order to identify whether thymosin beta 4 promotes proliferation of goblet cells, which are cells that secrete mucin in the conjunctiva, the eyeballs of the mice sacrificed in Experimental Example 1 were collected and assessed through periodicacid-Schiff (PAS) staining. […]

Muc1 = test: Immunofluorescence staining of Muc1 in cornea and conjunctiva of dry eye-induced mice; details: corneal and conjunctival epithelium; eye drop instillation for 10 days; immunofluorescence (FIGS. 6 and 7)
Method: as §1
as §2, with “1). […]” for “1).”
as §3

thymosin beta 4 (SDKPDMAEIEKFDKSKLKKTETQEKNPLPSKETIEQEKQAGES; thymosin beta 4; listed as Homo sapiens)
increased: amount of mucin secreted as compared with the DS D10 control group, visually identified [1] | expression level of Muc16 as compared with the DS D10 control group, visually identified (Muc16) | expression level of Muc4 as compared with the DS D10 control group, visually identified (Muc4) | expression level of Muc5AC as compared with the DS D10 control group, visually identified (Muc5AC) | number of goblet cells as compared with the DS D10 control group, visually identified [2] | expression level of Muc1 as compared with the DS D10 control group, visually identified (Muc1)
